Laboratory results as given in patent US4352880A (priority 1979, dated 1982).
Values joined by “and” are separate entries in the source; they are usually repeats but may differ in a detail not shown here. Equal values may be shown once. Read-outs that look alike come from different tables or passages of the source.

Assays:
physchem [1] = settings: ta-1538 agar
S. typhimurium TA1535 [2] = tested on: S. typhimurium TA1535
S. typhimurium TA1535 [3] = tested on: S. typhimurium TA1535; remark: listed apart in the source
physchem [4] = settings: agar
physchem [5] = settings: minimal medium, phosphate buffer, pH 7
S. typhimurium TA1535 [6] = experiment: Diffusion bioassay for mutagenicity with microsomal activation (procarcinogens); settings: for Cmut (minimal mutagenic concentration): brackets: one standard deviation; for Cmut threshold value (mean): diffusion method, metabolic activation, brackets: 90% confidence intervals; for Cmut /co /s: from figure
[7] = as above; settings: agar plates
S. typhimurium TA1535 [8] = experiment: Homogeneous bioassay with microsomal activation, minimum mutagenic concentration; settings: metabolic activation, 90% confidence intervals
[9] = half-lifetime .tau.1/2 from diffusion bioassay

**Q.** Which half-life (physchem [1]) does the source give for `CC(=O)Nc1ccc2c(c1)Cc1ccccc1-2` [2-AAF, a-acetyl amino fluorene] here?
**A.** 0.446 h

**Q.** With `CN(N=O)C(N)=O` [MNU, N-Methyl-N-nitrosourea] as the compound, how does the “C mut^hom threshold value” (S. typhimurium TA1535 [2]) read?
**A.** 0.116 ± 2.52

**Q.** What about the “Cmut threshold value (mean)” value (S. typhimurium TA1535 [3]) of the same compound?
**A.** 0.27(0.13, 0.45) μg/ml

**Q.** And the half-life (physchem [4]; [9])?
**A.** 0.628 h

**Q.** And the half-life (physchem [5])?
**A.** 0.599 h

**Q.** Which “rmut (radius of mutagenic zone)” value (S. typhimurium TA1535 [6]; 0.25 μl/disc, R = 4.25 cm, 3 days) does the source give for `O=NN1CCCC1` [NP, nitrosopyrrolidine] here?
**A.** 1.6 ± 0.18 cm

**Q.** What about the “Cmut (minimal mutagenic concentration)” value (S. typhimurium TA1535 [6]; 0.25 μl, co /s 0.27 mg/ml) of the same compound?
**A.** 0.233(0.143, 0.344) μg/ml

**Q.** And the “rmut (radius of mutagenic zone)” value (S. typhimurium TA1535 [6]; 2.5 μl/disc, R = 4.25 cm, 3 days)?
**A.** 2.5 ± 0.28 cm

**Q.** And the “Cmut (minimal mutagenic concentration)” value (S. typhimurium TA1535 [6]; 2.5 μl, co /s 2.71 mg/ml)?
**A.** 0.233(0.125, 0.449) μg/ml

**Q.** What about the “rmut (radius of mutagenic zone)” value (S. typhimurium TA1535 [6]; 10 μl/disc, R = 4.25 cm, 3 days) of the same compound?
**A.** 3.43 ± 0.32 cm and 3.4 ± 0.32 cm

**Q.** And the “Cmut (minimal mutagenic concentration)” value (S. typhimurium TA1535 [6]; 10 μl, co /s 10.85 mg/ml)?
**A.** 0.097(0.048, 0.212) μg/ml

**Q.** What about the “rmut (radius of mutagenic zone)” value (S. typhimurium TA1535 [6]; 25 μl/disc, R = 4.25 cm, 3 days) of the same compound?
**A.** 3.7 ± 0.31 cm

**Q.** And the “Cmut (minimal mutagenic concentration)” value (S. typhimurium TA1535 [6]; 25 μl, co /s 27.1 mg/ml)?
**A.** 0.108(0.082, 0.25) μg/ml

**Q.** What about the “Cmut threshold value (mean)” value (S. typhimurium TA1535 [6]) of the same compound?
**A.** 0.17(0.10, 0.37) μg/ml

**Q.** What about the half-life [7] of the same compound?
**A.** 5.1 h

**Q.** And the “C mut^hom threshold value” (S. typhimurium TA1535 [8])?
**A.** 0.58 ± 4.8

**Q.** Which results are given for `CCOS(C)(=O)=O` [EMS, ethyl-methane-sulfonate]?
**A.** C mut^hom threshold value (S. typhimurium TA1535 [2]): 16.85 ± 10.85; Cmut threshold value (mean) (S. typhimurium TA1535 [3]): 20.3(13.17, 26.97) μg/ml; half-life (physchem [4]; .tau.1/2 (Table 16)): 14.5 h; half-life (physchem [5]): 13.8 h

**Q.** For `COc1ccc2nc3cc(Cl)ccc3c(NCCCNCCCl)c2c1` [ICR-191], which half-life (physchem [1]) is on record?
**A.** 2.09 h

**Q.** And the “rmut (radius of mutagenic zone)” value (TA-1538; Co 10 mg/ml)?
**A.** 0.73 cm

**Q.** What about the “rmut (radius of mutagenic zone)” value (TA-1538; Co 100 mg/ml) of the same compound?
**A.** 1.16 cm

**Q.** What about the “rmut (radius of mutagenic zone)” value (TA-1538; Co 1000 mg/ml) of the same compound?
**A.** 1.52 cm

**Q.** Which “C mut^hom threshold value” (S. typhimurium TA1535 [2]) does the source give for `CC(=O)OCN(C)N=O` [AcDMN, Acetoxydimethylnitrosoamine] here?
**A.** 1.01 ± 1.48

**Q.** And the “Cmut threshold value (mean)” value (S. typhimurium TA1535 [3])?
**A.** 1.7(1.07, 3.53) μg/ml

**Q.** And the “half-lifetime .tau.1/2 from diffusion bioassay” value (S. typhimurium TA1535 [3]; agar)?
**A.** 34.5 h

**Q.** What about the half-life (physchem [4]; .tau.1/2 Parametrically) of the same compound?
**A.** 34.1 h

**Q.** What about the half-life (physchem [4]; [9]) of the same compound?
**A.** 19.1 h

**Q.** And the half-life (physchem [5])?
**A.** 30.4 h

**Q.** With `O=NN1CCOCC1` [NM, N-nitrosomorpholine] as the compound, how does the “rmut (radius of mutagenic zone)” value (S. typhimurium TA1535 [6]; 0.25 μl/disc, R = 4.25, TA 1535) read?
**A.** 1.31 ± 0.12 cm and 1.31 ± 0.1 cm

**Q.** And the “rmut /R” value (S. typhimurium TA1535 [6]; 0.25 μl, co /s 0.29 mg/ml, R = 4.25 cm)?
**A.** 0.3 ± 0.02

**Q.** What about the “Cmut (minimal mutagenic concentration)” value (S. typhimurium TA1535 [6]; 0.25 μl, co /s 0.29 mg/ml) of the same compound?
**A.** 0.64(0.436, 0.785) μg/ml

**Q.** And the Cmut /co /s (S. typhimurium TA1535 [6]; 0.25 μl, co /s 0.29 mg/ml)?
**A.** 2.2 × 10^-3

**Q.** And the “rmut (radius of mutagenic zone)” value (S. typhimurium TA1535 [6]; 2.5 μl/disc, R = 4.25, TA 1535)?
**A.** 2.25 ± 0.12 cm

**Q.** What about the “rmut /R” value (S. typhimurium TA1535 [6]; 2.5 μl, co /s 0.91 mg/ml, R = 4.25 cm) of the same compound?
**A.** 0.52 ± 0.02

**Q.** What about the “Cmut (minimal mutagenic concentration)” value (S. typhimurium TA1535 [6]; 2.5 μl, co /s 0.91 mg/ml) of the same compound?
**A.** 0.699(0.465, 0.902) μg/ml

**Q.** What about the Cmut /co /s (S. typhimurium TA1535 [6]; 2.5 μl, co /s 0.91 mg/ml) of the same compound?
**A.** 2.4 × 10^-4

**Q.** What about the “rmut (radius of mutagenic zone)” value (S. typhimurium TA1535 [6]; 25 μl/disc, R = 4.25, TA 1535) of the same compound?
**A.** 3.6 ± 0.12 cm and 3.6 ± 0.3 cm

**Q.** What about the “rmut /R” value (S. typhimurium TA1535 [6]; 25 μl, co /s 29.1 mg/ml, R = 4.25 cm) of the same compound?
**A.** 0.84 ± 0.07

**Q.** And the “Cmut (minimal mutagenic concentration)” value (S. typhimurium TA1535 [6]; 25 μl, co /s 29.1 mg/ml)?
**A.** 0.276(0.119, 0.505) μg/ml

**Q.** What about the Cmut /co /s (S. typhimurium TA1535 [6]; 25 μl, co /s 29.1 mg/ml) of the same compound?
**A.** 9.5 × 10^-6

**Q.** And the “Cmut threshold value (mean)” value (S. typhimurium TA1535 [6])?
**A.** 0.54(0.23, 0.80) μg/ml

**Q.** And the half-life [7]?
**A.** 6 h

**Q.** What about the “C mut^hom threshold value” (S. typhimurium TA1535 [8]) of the same compound?
**A.** 0.7 ± 3.6
